Test results as given in publication PMC13198257, “An aerosolized dual-action autotaxin inhibitor-PPARγ agonist for the treatment of pulmonary fibrosis” (Cell Reports Medicine, 2026).

Test system: lung gene expression
Test: RNA sequencing of lung tissue (BLM/EL244 vs BLM)
Assay type: in vivo, mouse
Description: RNA quality was assessed using an Agilent TapeStation 4150 with the High Sensitivity […] ScreenTape (Agilent), according to the manufacturer’s protocols. For library preparation, the QuantSeq 3’mRNA-Seq Library Prep Kit (Lexogen) was used according to manufacturer’s instructions. Briefly, 500 ng of RNA from each sample was used for first-strand synthesis, followed by RNA template removal, and second-strand synthesis initiated by random primers. In-line barcodes were introduced at this step, and this was followed by magnetic bead-based purification. The resulting libraries were amplified for 15 cycles and re-purified, with quantity and quality assessed on a Qubit 4 Fluorometer with the Invitrogen Qubit dsDNA HS Assay and an Agilent Tapestation 4150 with the High Sensitivity D1000 assay kit, respectively. The quantified libraries were pooled equimolarly; 50ng of total library mix was used for Adapter Conversion PCR Amplification using the Universal Library Conversion Kit (App-A), Version: V1.0 (MGI Tech Co., Ltd.), according to the manufacturer’s instructions.
The quantity and quality of the purified adapter conversion PCR (AC-PCR) product were evaluated on a Qubit 4 Fluorometer with the Invitrogen Qubit dsDNA HS Assay and on an Agilent Tapestation 4150 with the High Sensitivity D1000 assay kit, respectively. This was followed by DNA denaturation, Single-Strand Circularisation, Enzymatic Digestion, Enzymatic Digestion Product Cleanup and Quality Control steps on 1 pmol of AC-PCR product, according to the Universal Library Conversion Kit (App-A) User Manual (Version: A3).
Finally, 60 fmol of ssCirDNA were used for DNB preparation and sequencing on a DNBSEQ-G400 platform at the BSRC Alexander Fleming Genomics Facility, using a G400 App-A FCS SE100 High-throughput Sequencing Set (MGI Tech Co., Ltd.), according to the manufacturer’s instructions.
Alignment of the FASTQ files was performed against the mouse genome build mm10 using a custom Bash script.[143] Read counting on the 3′ UTRs and differential expression analysis were conducted using the metaseqR2 bioconductor package.[144] Genes corresponding to the following biotypes were excluded: polymorphic_pseudogene, processed_transcript, pseudogene, IG_V_pseudogene, misc_RNA, IG_C_gene, IG_J_gene, IG_D_gene, IG_LV_gene, TR_V_gene, TR_V_pseudogene, TEC, and processed_pseudogene. Gene counts were normalized with DESEQ[145] through metaseqR2. Genes with more than 10 counts in at least 50% of the samples were kept for further processing. For differential expression analysis, the PANDORA algorithm[146] was used to estimate a meta p-value integrating the results from the DESEQ, DESEQ2,[147] edgeR,[148] limma,[149] NBPSeq,[150] and NOISeq[151] algorithms. All additional parameters were set to default values.
Pathway enrichment analysis was performed for the Gene Ontology Biological process (BP) and Molecular Function (MF) terms through GeneCodis 4.[152] The volcano plots, scatterplots, Venn diagrams, and dot plots were generated using the ggplot2 Bioconductor package.

With `O=C1NC(=O)C(Cc2ccc(OCCC3CCN(C(=O)OCc4cc(Cl)cc(Cl)c4)CC3)cc2)S1` (stereo not drawn) [EL244, 3,5-dichlorobenzyl 4-(2-(4-((2,4-dioxothiazolidin-5-yl)methyl)phenoxy)ethyl)piperidine-1-carboxylate] the “Igfbp3 log2 nFC BLM/EL244 vs BLM” value (DEG Igfbp3, nFC: normalised fold change) was 1.75, the “Igfbp6 log2 nFC BLM/EL244 vs BLM” value (DEG Igfbp6, nFC: normalised fold change) was 1.68 and the “Il6ra log2 nFC BLM/EL244 vs BLM” value (DEG Il6ra, nFC: normalised fold change) was 0.84. For the same compound, the “log2 nFC BLM/EL244 vs BLM” value (DEG Ildr2) was -1.32, the “Inmt log2 nFC BLM/EL244 vs BLM” value (DEG Inmt, nFC: normalised fold change) was 1.34 and the “Iqca log2 nFC BLM/EL244 vs BLM” value (DEG Iqca, nFC: normalised fold change) was 0.87. For the same compound, the “log2 nFC BLM/EL244 vs BLM” value (DEG Iqgap3) was -2.41, the “Itga2b log2 nFC BLM/EL244 vs BLM” value (DEG Itga2b, nFC: normalised fold change) was 1.10 and the “Itga8 log2 nFC BLM/EL244 vs BLM” value (DEG Itga8, nFC: normalised fold change) was 0.88. The “log2 nFC BLM/EL244 vs BLM” value (DEG Itm2a) was -1.25, the “Jdp2 log2 nFC BLM/EL244 vs BLM” value (DEG Jdp2, nFC: normalised fold change) was 0.71 and the “Kcne2 log2 nFC BLM/EL244 vs BLM” value (DEG Kcne2, nFC: normalised fold change) was 1.32. For the same compound, the “log2 nFC BLM/EL244 vs BLM” value (DEG Kcnn4) was -1.27, the “log2 nFC BLM/EL244 vs BLM” value (DEG Kdelr3) was -1.25 and the “log2 nFC BLM/EL244 vs BLM” value (DEG Kif14) was -1.56. The “log2 nFC BLM/EL244 vs BLM” value (DEG Kif20a) was -2.52, the “Klf3 log2 nFC BLM/EL244 vs BLM” value (DEG Klf3, nFC: normalised fold change) was 0.69 and the “Klf4 log2 nFC BLM/EL244 vs BLM” value (DEG Klf4, nFC: normalised fold change) was 0.72. The “Klf9 log2 nFC BLM/EL244 vs BLM” value (DEG Klf9, nFC: normalised fold change) was 0.85, the “Klf15 log2 nFC BLM/EL244 vs BLM” value (DEG Klf15, nFC: normalised fold change) was 1.42 and the “Klrc1 log2 nFC BLM/EL244 vs BLM” value (DEG Klrc1, nFC: normalised fold change) was 1.38. The “Kndc1 log2 nFC BLM/EL244 vs BLM” value (DEG Kndc1, nFC: normalised fold change) was 1.05, the “log2 nFC BLM/EL244 vs BLM” value (DEG Knstrn) was -2.52 and the “log2 nFC BLM/EL244 vs BLM” value (DEG Kntc1) was -1.39. For the same compound, the “Krt79 log2 nFC BLM/EL244 vs BLM” value (DEG Krt79, nFC: normalised fold change) was 1.75, the “log2 nFC BLM/EL244 vs BLM” value (DEG Lama1) was -2.43 and the “Ldb3 log2 nFC BLM/EL244 vs BLM” value (DEG Ldb3, nFC: normalised fold change) was 1.52. The “Lncpint log2 nFC BLM/EL244 vs BLM” value (DEG Lncpint, nFC: normalised fold change) was 1.06, the “Lrat log2 nFC BLM/EL244 vs BLM” value (DEG Lrat, nFC: normalised fold change) was 1.15 and the “Lrrc74b log2 nFC BLM/EL244 vs BLM” value (DEG Lrrc74b, nFC: normalised fold change) was 1.02. The “log2 nFC BLM/EL244 vs BLM” value (DEG Ltbp2) was -1.44, the “Ltbp4 log2 nFC BLM/EL244 vs BLM” value (DEG Ltbp4, nFC: normalised fold change) was 0.81 and the “log2 nFC BLM/EL244 vs BLM” value (DEG Lum) was -1.32. For the same compound, the “Lyve1 log2 nFC BLM/EL244 vs BLM” value (DEG Lyve1, nFC: normalised fold change) was 0.96, the “Map3k6 log2 nFC BLM/EL244 vs BLM” value (DEG Map3k6, nFC: normalised fold change) was 0.95 and the “Mapt log2 nFC BLM/EL244 vs BLM” value (DEG Mapt, nFC: normalised fold change) was 0.89. For the same compound, the “log2 nFC BLM/EL244 vs BLM” value (DEG Mark1) was -1.23, the “log2 nFC BLM/EL244 vs BLM” value (DEG Matk) was -1.42 and the “Mb log2 nFC BLM/EL244 vs BLM” value (DEG Mb, nFC: normalised fold change) was 2.27. The “Mcf2l log2 nFC BLM/EL244 vs BLM” value (DEG Mcf2l, nFC: normalised fold change) was 0.95, the “log2 nFC BLM/EL244 vs BLM” value (DEG Mcm5) was -1.33 and the “log2 nFC BLM/EL244 vs BLM” value (DEG Mdk) was -1.34. The “Mettl7a1 log2 nFC BLM/EL244 vs BLM” value (DEG Mettl7a1, nFC: normalised fold change) was 0.80, the “Mir29c log2 nFC BLM/EL244 vs BLM” value (DEG Mir29c, nFC: normalised fold change) was 0.89 and the “log2 nFC BLM/EL244 vs BLM” value (DEG Mir147) was -1.44. For the same compound, the “Mir6899 log2 nFC BLM/EL244 vs BLM” value (DEG Mir6899, nFC: normalised fold change) was 0.84, the “Mir6979 log2 nFC BLM/EL244 vs BLM” value (DEG Mir6979, nFC: normalised fold change) was 1.18 and the “log2 nFC BLM/EL244 vs BLM” value (DEG Mis18bp1) was -1.46. For the same compound, the “Mmp9 log2 nFC BLM/EL244 vs BLM” value (DEG Mmp9, nFC: normalised fold change) was 1.20, the “log2 nFC BLM/EL244 vs BLM” value (DEG Mmp12) was -2.48 and the “log2 nFC BLM/EL244 vs BLM” value (DEG Mmp14) was -1.31. For the same compound, the “Mpp3 log2 nFC BLM/EL244 vs BLM” value (DEG Mpp3, nFC: normalised fold change) was 1.65, the “log2 nFC BLM/EL244 vs BLM” value (DEG Ms4a7) was -1.49 and the “Ms4a4d log2 nFC BLM/EL244 vs BLM” value (DEG Ms4a4d, nFC: normalised fold change) was 1.15. The “log2 nFC BLM/EL244 vs BLM” value (DEG Msr1) was -1.44, the “Mybpc3 log2 nFC BLM/EL244 vs BLM” value (DEG Mybpc3, nFC: normalised fold change) was 2.06 and the “Mybphl log2 nFC BLM/EL244 vs BLM” value (DEG Mybphl, nFC: normalised fold change) was 2.33.
